Assay [1] concerns the target T1, JAK 3 (Homo sapiens, UniProt P52333).
T1 sequence (P52333 1-1124): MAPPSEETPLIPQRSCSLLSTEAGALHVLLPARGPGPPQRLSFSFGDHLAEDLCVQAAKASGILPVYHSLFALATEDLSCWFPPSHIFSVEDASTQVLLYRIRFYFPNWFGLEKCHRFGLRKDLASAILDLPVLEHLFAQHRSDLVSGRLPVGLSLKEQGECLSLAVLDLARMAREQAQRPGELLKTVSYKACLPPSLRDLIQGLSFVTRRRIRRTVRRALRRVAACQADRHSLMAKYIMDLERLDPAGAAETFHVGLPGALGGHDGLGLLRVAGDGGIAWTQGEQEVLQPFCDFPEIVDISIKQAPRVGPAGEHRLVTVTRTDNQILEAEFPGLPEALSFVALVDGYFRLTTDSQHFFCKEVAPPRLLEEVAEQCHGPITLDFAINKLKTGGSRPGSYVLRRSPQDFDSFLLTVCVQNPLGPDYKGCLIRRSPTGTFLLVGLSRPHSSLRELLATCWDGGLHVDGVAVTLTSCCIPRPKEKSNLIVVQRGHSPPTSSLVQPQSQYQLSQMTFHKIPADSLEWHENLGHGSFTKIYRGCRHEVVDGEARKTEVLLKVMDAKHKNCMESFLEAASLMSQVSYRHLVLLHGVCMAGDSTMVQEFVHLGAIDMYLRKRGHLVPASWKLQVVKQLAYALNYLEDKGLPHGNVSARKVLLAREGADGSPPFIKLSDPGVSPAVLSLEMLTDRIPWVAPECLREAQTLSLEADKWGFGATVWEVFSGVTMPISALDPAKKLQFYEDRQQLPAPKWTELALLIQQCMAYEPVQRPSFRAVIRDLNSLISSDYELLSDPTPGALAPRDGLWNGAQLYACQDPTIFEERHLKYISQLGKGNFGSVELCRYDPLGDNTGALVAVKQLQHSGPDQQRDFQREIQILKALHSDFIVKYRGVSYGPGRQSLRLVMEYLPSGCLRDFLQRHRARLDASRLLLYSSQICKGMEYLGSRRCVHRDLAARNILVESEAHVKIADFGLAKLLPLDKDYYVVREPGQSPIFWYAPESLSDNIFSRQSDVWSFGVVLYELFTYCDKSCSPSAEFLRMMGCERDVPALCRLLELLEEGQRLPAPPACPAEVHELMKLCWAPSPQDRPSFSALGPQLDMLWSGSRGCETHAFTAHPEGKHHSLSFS
Put plainly: Biochemical potency on JAK3, TR-FRET LANCE Ultra kinase assay (examples 1-99). To be noted: ATP at Km (0.2 μM), read-out: JAK3 inhibitory activity (pIC50 class) (converted). How it is done:
(§1) The objective of this study was to assess the capability of compounds to inhibit all 4 JAK isoforms activity in a cell-free environment. Assay for JAK 1, JAK 2, JAK 3 and TYK2 were performed by Time-resolved fluorescence resonance energy transfer (TR-FRET) technology. It consists in the interaction of two labelled binding partners detected by the energy transfer from an excited donor to an acceptor dye and measurement of light emission by the acceptor dye. LANCE Ultra kinase assay was used. In presence of JAK 1, JAK 2, JAK 3 and TYK2 kinases and ATP (corresponding to Km), the ULight peptide substrate (LANCE Ulight-JAK-1 (Tyr1023) Peptide, Perkin Elmer, TRF0121) is phosphorylated. It is then captured by Eu-anti-phospho-substrate antibody (LANCE Eu-W1024 Anti-phosphotyrosine (PT66), Perkin Elmer, AD0069), which bring the Eu-chelate donor and ULight acceptor dyes into close proximity. Upon excitation at 320 nm, the Eu-chelate transfers its energy to the ULight dye, resulting in a fluorescent light emission at 665 nm.
(§2) Serial dilutions of compounds in pure DMSO are prepared from 10 mM DMSO stock solutions. Compounds were tested in 384-well plate for 11 consecutive 5-fold dilutions starting from 20 μM highest concentration (20 μM-[…]). 200 nL of compound were transferred from mother plate to test plate by using Mosquito (TTP labtech). Assay was performed in 384-well Perkin Elmer test plate in 20 μL assay volume (kinase reaction) and 40 μL total volume (stopping reagent and antibody detection reagents). In 10 μL of substrate solution (peptide+ATP) 30/50/20/10 nM of peptide and 20/0.7/0.2/12 μM of ATP were added for JAK 1, JAK 2, JAK 3 and TYK2 respectively. 10 μL of enzyme solution was added to kinase reaction at these concentrations: 0.15/0.083/0.025/0.144 ng/μL of JAK 1, JAK 2, JAK 3 and TYK2 respectively. After shaking and 1.5 h of incubation at r.t., 20 μL of Stop (10 μL EDTA) and Detection mixture (10 μL Europium-anti-phospho antibody, final: 0.5 nM) were added. Reading was performed after 1 h of incubation on a EnVision 2104 reader (Perkin Elmer).
(§3) Calculation of IC50 data, curves and QC analysis was performed by using Excel tool and GraphPadPrism software, v9. Briefly, individual concentration-effect curves are generated by plotting the logarithm of the tested concentration of tested compounds (X) vs. corresponding percent inhibition values (Y) using least squares (ordinary) fit. Best fit IC50 values are calculated using Log(inhibitor) vs. normalized response—Variable slope equation, where Y=100/(1+10^((Log IC50−X)*HillSlope)). QC criteria parameters (Z′, S:B, R2, HillSlope) were checked for every IC50 curve. Calculation of IC50 data, curves and QC analysis were made using Excel tools and GraphPadPrism software. QC criteria parameters: Z′≥0.5, Hill Slope range 0.5 to 5, S:B>2.
For orientation: TR-FRET usually uses a lanthanide donor and a delayed reading to cut background.

Assay [2] addresses JAK 2 (Homo sapiens, UniProt O60674). Put plainly: Biochemical potency on JAK2, TR-FRET LANCE Ultra kinase assay (examples 1-99). To be noted: ATP at Km (0.7 μM), read-out: JAK2 inhibitory activity (pIC50 class) (converted). How it is done: as §1, §2, §3
In assay [3] the target is JAK 1 (Homo sapiens, UniProt P23458). The experiment in a line: Biochemical potency on JAK1, TR-FRET LANCE Ultra kinase assay (examples 1-99). The conditions noted are these: ATP at Km (20 μM), read-out: JAK1 inhibitory activity (pIC50 class) (converted). As for the experimental part: as §1, §2, §3
Sequence of JAK 1 (P23458 whole entry): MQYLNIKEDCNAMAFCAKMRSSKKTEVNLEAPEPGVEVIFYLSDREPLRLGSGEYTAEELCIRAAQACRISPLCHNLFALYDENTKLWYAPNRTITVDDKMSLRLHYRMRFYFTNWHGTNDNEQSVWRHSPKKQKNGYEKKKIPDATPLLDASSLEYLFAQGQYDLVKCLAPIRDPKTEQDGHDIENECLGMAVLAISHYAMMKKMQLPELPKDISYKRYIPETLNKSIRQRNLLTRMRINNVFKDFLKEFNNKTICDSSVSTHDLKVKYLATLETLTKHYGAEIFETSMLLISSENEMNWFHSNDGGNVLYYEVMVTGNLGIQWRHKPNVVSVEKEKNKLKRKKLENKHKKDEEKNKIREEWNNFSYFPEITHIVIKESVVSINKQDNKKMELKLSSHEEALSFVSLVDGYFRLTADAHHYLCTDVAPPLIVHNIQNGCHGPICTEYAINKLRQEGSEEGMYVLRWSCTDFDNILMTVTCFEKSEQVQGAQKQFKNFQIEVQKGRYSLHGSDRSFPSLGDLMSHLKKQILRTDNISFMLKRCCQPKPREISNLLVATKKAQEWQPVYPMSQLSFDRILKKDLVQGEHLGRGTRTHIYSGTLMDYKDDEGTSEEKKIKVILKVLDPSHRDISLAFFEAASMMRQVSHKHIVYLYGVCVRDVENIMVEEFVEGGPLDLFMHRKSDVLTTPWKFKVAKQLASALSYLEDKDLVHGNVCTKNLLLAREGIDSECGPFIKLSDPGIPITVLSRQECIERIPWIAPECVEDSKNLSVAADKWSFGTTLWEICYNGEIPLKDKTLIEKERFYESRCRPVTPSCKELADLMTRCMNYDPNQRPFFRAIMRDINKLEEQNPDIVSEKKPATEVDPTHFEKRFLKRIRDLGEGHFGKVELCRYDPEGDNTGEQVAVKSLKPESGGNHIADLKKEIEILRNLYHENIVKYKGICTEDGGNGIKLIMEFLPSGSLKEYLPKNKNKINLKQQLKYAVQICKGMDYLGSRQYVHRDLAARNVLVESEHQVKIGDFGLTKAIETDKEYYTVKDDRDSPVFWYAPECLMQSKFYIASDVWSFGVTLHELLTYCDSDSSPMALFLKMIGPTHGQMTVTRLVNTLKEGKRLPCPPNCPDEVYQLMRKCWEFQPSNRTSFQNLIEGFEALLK
The target in assay [4] is TYK2 (Homo sapiens, UniProt P29597). The experiment in a line: Biochemical potency on Tyk2, TR-FRET LANCE Ultra kinase assay (examples 1-99). The conditions noted are these: ATP at Km (12 μM), read-out: Tyk2 inhibitory activity (pIC50 class) (converted). How it is done:
as §1, §2, §3

Sequence of TYK2 (P29597 whole entry): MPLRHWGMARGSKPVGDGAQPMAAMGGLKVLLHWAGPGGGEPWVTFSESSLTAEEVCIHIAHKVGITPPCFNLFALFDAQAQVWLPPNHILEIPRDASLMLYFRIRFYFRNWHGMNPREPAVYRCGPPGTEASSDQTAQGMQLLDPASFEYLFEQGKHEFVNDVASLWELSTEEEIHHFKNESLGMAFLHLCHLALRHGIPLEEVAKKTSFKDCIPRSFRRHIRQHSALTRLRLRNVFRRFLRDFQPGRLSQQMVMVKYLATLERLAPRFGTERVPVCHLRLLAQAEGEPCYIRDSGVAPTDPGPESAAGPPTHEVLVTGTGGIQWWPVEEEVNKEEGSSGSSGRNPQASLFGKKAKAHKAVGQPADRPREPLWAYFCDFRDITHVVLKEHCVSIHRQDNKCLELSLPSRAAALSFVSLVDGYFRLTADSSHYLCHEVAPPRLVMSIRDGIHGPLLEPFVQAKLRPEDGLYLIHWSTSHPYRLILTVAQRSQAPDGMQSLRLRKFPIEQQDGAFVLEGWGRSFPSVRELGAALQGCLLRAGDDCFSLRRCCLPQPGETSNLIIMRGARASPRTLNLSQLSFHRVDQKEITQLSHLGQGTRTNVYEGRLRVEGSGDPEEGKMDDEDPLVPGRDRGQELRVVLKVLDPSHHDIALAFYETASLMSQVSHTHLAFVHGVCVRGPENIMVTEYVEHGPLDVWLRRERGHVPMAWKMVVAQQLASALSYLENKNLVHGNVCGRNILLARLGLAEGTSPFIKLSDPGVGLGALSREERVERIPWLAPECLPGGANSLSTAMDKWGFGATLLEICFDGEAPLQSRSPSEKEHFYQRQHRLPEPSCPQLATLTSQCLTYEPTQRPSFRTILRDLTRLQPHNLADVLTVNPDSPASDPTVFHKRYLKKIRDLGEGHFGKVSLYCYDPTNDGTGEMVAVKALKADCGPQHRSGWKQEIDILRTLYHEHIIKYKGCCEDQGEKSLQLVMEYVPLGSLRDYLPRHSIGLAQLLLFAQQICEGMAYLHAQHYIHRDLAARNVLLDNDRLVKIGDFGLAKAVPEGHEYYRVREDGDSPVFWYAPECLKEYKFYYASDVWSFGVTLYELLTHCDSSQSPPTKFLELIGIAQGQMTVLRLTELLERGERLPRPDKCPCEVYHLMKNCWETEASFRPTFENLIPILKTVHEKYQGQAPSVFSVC
Sequence of JAK 2 (O60674 whole entry): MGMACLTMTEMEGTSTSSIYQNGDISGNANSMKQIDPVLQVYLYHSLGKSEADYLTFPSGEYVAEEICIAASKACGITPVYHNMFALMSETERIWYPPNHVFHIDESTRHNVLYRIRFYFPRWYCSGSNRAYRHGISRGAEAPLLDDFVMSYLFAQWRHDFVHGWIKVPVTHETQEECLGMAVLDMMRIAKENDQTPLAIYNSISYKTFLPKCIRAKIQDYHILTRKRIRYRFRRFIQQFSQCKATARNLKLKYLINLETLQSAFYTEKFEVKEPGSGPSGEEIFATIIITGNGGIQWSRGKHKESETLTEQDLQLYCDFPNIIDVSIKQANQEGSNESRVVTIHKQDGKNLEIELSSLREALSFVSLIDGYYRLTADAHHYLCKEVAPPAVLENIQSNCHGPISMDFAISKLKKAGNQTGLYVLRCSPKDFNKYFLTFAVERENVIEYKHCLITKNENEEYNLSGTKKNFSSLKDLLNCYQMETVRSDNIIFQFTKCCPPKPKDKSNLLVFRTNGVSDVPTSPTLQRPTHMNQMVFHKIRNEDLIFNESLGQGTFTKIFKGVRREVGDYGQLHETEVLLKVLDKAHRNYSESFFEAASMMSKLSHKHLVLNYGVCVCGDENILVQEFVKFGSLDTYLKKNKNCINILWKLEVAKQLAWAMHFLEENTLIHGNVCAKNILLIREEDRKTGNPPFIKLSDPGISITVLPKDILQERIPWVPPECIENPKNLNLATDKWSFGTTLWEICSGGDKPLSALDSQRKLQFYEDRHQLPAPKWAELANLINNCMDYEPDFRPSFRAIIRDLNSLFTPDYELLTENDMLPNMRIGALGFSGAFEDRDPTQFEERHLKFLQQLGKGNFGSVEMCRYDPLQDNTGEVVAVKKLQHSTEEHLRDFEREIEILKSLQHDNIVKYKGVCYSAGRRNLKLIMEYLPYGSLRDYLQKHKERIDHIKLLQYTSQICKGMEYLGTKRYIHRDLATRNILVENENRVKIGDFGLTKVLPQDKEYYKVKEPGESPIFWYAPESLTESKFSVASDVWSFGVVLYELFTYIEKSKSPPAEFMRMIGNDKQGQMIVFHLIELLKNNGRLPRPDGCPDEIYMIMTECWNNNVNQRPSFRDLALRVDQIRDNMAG

As for `N[C@H]1C[C@@H](NC(=O)c2nn(-c3cc(Cl)ccc3OC(F)F)c3cc(-c4cnn5cccnc45)ncc23)C1` [Example 81, N-((1s,3s)-3-aminocyclobutyl)-1-(5-chloro-2-(difluoromethoxy)phenyl)-6-(pyrazolo[1,5-a]pyrimidin-3-yl)-1H-pyrazolo[4,3-c]pyridine-3-carboxamide], the IC50 was 5.01 to 50.1 nM in assay [1], more than 50.1 nM in assay [2], 5.01 to 50.1 nM in assay [3] and more than 50.1 nM in assay [4].
Take `COc1ccc(Cl)cc1-n1nc(N)c2cnc(-c3cnn4cccnc34)cc21` [Example 39, 1-(5-chloro-2-methoxyphenyl)-6-(pyrazolo[1,5-a]pyrimidin-3-yl)-1H-pyrazolo[4,3-c]pyridin-3-amine]: the IC50 was not above 5.01 nM in assay [1], not above 5.01 nM in assay [2], not above 5.01 nM in assay [3] and 5.01 to 50.1 nM in assay [4].
With `CSc1ccc(OC(F)F)c(-n2nc(C(=O)NCCCN(C)C)c3cnc(-c4cnn5cccnc45)cc32)c1` [Example 37, 1-(2-(difluoromethoxy)-5-(methylthio)phenyl)-N-(3-(dimethylamino)propyl)-6-(pyrazolo[1,5-a]pyrimidin-3-yl)-1H-pyrazolo[4,3-c]pyridine-3-carboxamide], the IC50 in assay [1] is not above 5.01 nM; in assay [2], not above 5.01 nM; in assay [3], not above 5.01 nM; in assay [4], 5.01 to 50.1 nM.
Turning to `COc1cc(O)c(C)cc1-n1nc(C)c2cnc(-c3cnn4cccnc34)cc21` [Example 60, 5-methoxy-2-methyl-4-(3-methyl-6-(pyrazolo[1,5-a]pyrimidin-3-yl)-1H-pyrazolo[4,3-c]pyridin-1-yl)phenol], the IC50 in assay [1] was not above 5.01 nM; in assay [2], not above 5.01 nM; in assay [3] it was not above 5.01 nM; in assay [4], 5.01 to 50.1 nM.
Turning to `Cc1nn(-c2cc(Cl)ccc2OC2CC2)c2cc(-c3cnn4cccnc34)ncc12` [Example 7, 1-(5-chloro-2-cyclopropoxyphenyl)-3-methyl-6-(pyrazolo[1,5-a]pyrimidin-3-yl)-1H-pyrazolo[4,3-c]pyridine], the IC50 in assay [1] was not above 5.01 nM; in assay [2] it was not above 5.01 nM; in assay [3], 5.01 to 50.1 nM; in assay [4], 5.01 to 50.1 nM.
Regarding `COc1ccc(C(F)F)cc1-n1nc(NCCN(C)C)c2cnc(-c3cnn4cccnc34)cc21` [Example 44, N1-(1-(5-(difluoromethyl)-2-methoxyphenyl)-6-(pyrazolo[1,5-a]pyrimidin-3-yl)-1H-pyrazolo[4,3-c]pyridin-3-yl)-N2,N2-dimethylethane-1,2-diamine], the IC50 was 5.01 to 50.1 nM in assay [1], not above 5.01 nM in assay [2], 5.01 to 50.1 nM in assay [3] and 5.01 to 50.1 nM in assay [4].
Consider `COc1cc(O)c(F)cc1-n1nc(C)c2cnc(-c3cnn4cccnc34)cc21` [Example 58, 2-fluoro-5-methoxy-4-(3-methyl-6-(pyrazolo[1,5-a]pyrimidin-3-yl)-1H-pyrazolo[4,3-c]pyridin-1-yl)phenol], for which the IC50 in assay [1] is not above 5.01 nM; in assay [2], not above 5.01 nM; in assay [3], not above 5.01 nM; in assay [4], 5.01 to 50.1 nM.
With `NCc1nn(-c2cc(Cl)ccc2OC(F)F)c2cc(-c3cnn4cccnc34)ncc12` [Example 32, (1-(5-chloro-2-(difluoromethoxy)phenyl)-6-(pyrazolo[1,5-a]pyrimidin-3-yl)-1H-pyrazolo[4,3-c]pyridin-3-yl)methanamine], the IC50 in assay [1] was 5.01 to 50.1 nM; in assay [2], not above 5.01 nM; in assay [3] it was 5.01 to 50.1 nM; in assay [4], 5.01 to 50.1 nM.
Consider `COc1cc(O)ccc1-n1nc(C)c2cnc(-c3cnn4cccnc34)cc21` [Example 27, 3-methoxy-4-(3-methyl-6-(pyrazolo[1,5-a]pyrimidin-3-yl)-1H-pyrazolo[4,3-c]pyridin-1-yl)phenol], for which the IC50 in assay [1] was 5.01 to 50.1 nM; in assay [2], not above 5.01 nM; in assay [3], 5.01 to 50.1 nM; in assay [4], more than 50.1 nM.
For the molecule `Cc1nn(-c2cc(Cl)ccc2O)c2cc(-c3cnn4cccnc34)ncc12` [Example 12, 4-chloro-2-(3-methyl-6-(pyrazolo[1,5-a]pyrimidin-3-yl)-1H-pyrazolo[4,3-c]pyridin-1-yl)phenol], the IC50 in assay [1] was 5.01 to 50.1 nM; in assay [2] it was not above 5.01 nM; in assay [3], 5.01 to 50.1 nM; in assay [4], 5.01 to 50.1 nM.
On to `CC(=O)N1CCC(S(=O)(=O)c2ccc(OC(F)F)c(-n3nc(C)c4cnc(-c5cnn6cccnc56)cc43)c2)C1` (stereo not shown) [Example 24, 1-(3-((4-(difluoromethoxy)-3-(3-methyl-6-(pyrazolo[1,5-a]pyrimidin-3-yl)-1H-pyrazolo[4,3-c]pyridin-1-yl)phenyl)sulfonyl)pyrrolidin-1-yl)ethan-1-one], for which the IC50 is not above 5.01 nM in assay [1], not above 5.01 nM in assay [2], 5.01 to 50.1 nM in assay [3] and more than 50.1 nM in assay [4].
As for `Cc1ccc(OC(F)F)c(-n2nc(C)c3cnc(-c4cnn5cccnc45)cc32)c1` [Example 65, 1-(2-(difluoromethoxy)-5-methylphenyl)-3-methyl-6-(pyrazolo[1,5-a]pyrimidin-3-yl)-1H-pyrazolo[4,3-c]pyridine], the IC50 in assay [1] was not above 5.01 nM; in assay [2], 5.01 to 50.1 nM; in assay [3], 5.01 to 50.1 nM; in assay [4], 5.01 to 50.1 nM.
`CC(=O)N1CCC(Sc2ccc(OC(F)F)c(-n3nc(C)c4cnc(-c5cnn6cccnc56)cc43)c2)CC1` [Example 75, 1-(4-((4-(difluoromethoxy)-3-(3-methyl-6-(pyrazolo[1,5-a]pyrimidin-3-yl)-1H-pyrazolo[4,3-c]pyridin-1-yl)phenyl)thio)piperidin-1-yl)ethan-1-one]: the IC50 was 5.01 to 50.1 nM in assay [1], 5.01 to 50.1 nM in assay [2], 5.01 to 50.1 nM in assay [3] and more than 50.1 nM in assay [4].

The values above are taken from patent US20240279240A1, “HETEROCYCLIC DERIVATIVES AS JANUS KINASE INHIBITORS” (CHIESI FARMACEUTICI S.P.A., priority 2021, published 2024).
